# Values of other authors, collected in patent US4835149A, “Solubilization of salts of pyridine-2-thiol-1-oxide” (BASF Corporation, priority 1986, dated 1989).
# How the values were obtained:
# [1] = not given; remark: listed apart in the source
smiles,measurement,setting,value
[O-][n+]1ccccc1[S-].[O-][n+]1ccccc1[S-].[Zn+2] [zinc salt],solubility in benzene,benzene,3-5 p.p.m.
same,solubility in chloroform,chloroform,3400 p.p.m.
same,solubility in dimethyl formamide,dimethyl formamide,8100 p.p.m.
same,solubility in dimethyl sulfoxide,dimethyl sulfoxide,5.13%
same,solubility in ethanol,ethanol,310 p.p.m.
same,"solubility in petroleum oils, and most common organic solvents","petroleum oils, and most common organic solvents, in words",substantially insoluble
same,solubility in water,water,10-20 p.p.m.
same,"solubility of the zinc salt in a composition according to U.S. Pat. No. 3,636,213",[1]; composition having a pH of about 8,at least 200 parts per million
same,solubility in water at pH 8,[1]; pH of 8,35 to 50 parts per million
same,solubility in water at pH 7,"[1]; water, pH 7",10 to 20 parts per million
